Test results: patent US9434724B2, “Quinuclidines for modulating alpha 7 activity” (priority 2014, dated 2016)
Where two headings read alike, the source gives them in different places.

What was measured:
[1] = Metabolic stability assay in rat liver microsomes (RLM); assay type: in vitro ADME; settings: 1 μM
Procedure: (§1) Protocol 1: Studies were carried out in human and rat liver microsomes (“HLM” and “RLM,” respectively). Human and rat liver microsomes were purchased from BD Gentest. DMSO stocks were prepared for the test compounds. Aliquots of the DMSO solutions were diluted to 0.5 mM by acetonitrile, then further diluted by liver microsomes/buffer to 1.5 μM. 30 μL of 1.5 μM solutions were mixed with 15 μL of 6 mM NADPH, which had been pre-warmed to 37° C., at a final test compound concentration of 1 μM. The plates were kept in a 37° C. water bath for the duration of the experiment. At each time point (0, 5, 15, 30, 45 minutes), 135 μL of acetonitrile was added into corresponding wells. After the final time point was sampled, the plates were shaken at a vibrator (IKA, MTS 2/4) for 10 min (600 rpm/min) and then centrifuged at 5594 g for 15 min (Thermo Multifuge×3R). Aliquots of the supernatant were removed, diluted 1:1 into distilled water, and analyzed by LC-MS/MS. The peak area response ratio to internal standard (PARR) of the compounds at 5, 15, 30, 45 minutes was compared to the PARR at time 0 to determine the percent of test compound remaining at each time point. Half-lives were calculated using Excel software, fitting to a single-phase exponential decay equation.
(§2) Protocol 2: Studies were carried out in human and rat liver microsomes. Buffer solutions were prepared as follows: Buffer A: 1.0 L of 0.1 M monobasic Potassium Phosphate buffer containing 1.0 mM EDTA; Buffer B: 1.0 L of 0.1 M Dibasic Potassium Phosphate buffer containing 1.0 mM EDTA; Buffer C: 0.1 M Potassium Phosphate buffer, 1.0 mM EDTA, pH 7.4 by titrating 700 mL of buffer B with buffer A while monitoring with a pH meter.
(§3) Reference compound (Ketanserin) and test compound spiking solutions were prepared as follows: 500 μM spiking solution: add 10 μL of 10 mM DMSO stock solution into 190 μL ACN; 1.5 μM spiking solution in microsomes (0.75 mg/mL): add 1.5 μL of 500 μM spiking solution and 18.75 μL of 20 mg/mL liver microsomes into 479.75 μL of Buffer C.
(§4) NADPH stock solution (6 mM) was prepared by dissolving NADPH into buffer C.
(§5) Assay procedure: 30 μL of 1.5 μM spiking solution containing 0.75 mg/mL microsomes solution was dispensed to the wells designated for […]. The plate was pre-incubated at 37° C. for 10 minutes. 15 μL of NADPH stock solution (6 mM) was added to the wells designated as Time 45, and the timer was started. At 30 mM, 15 mM, and 5 mM, 15 μL NADPH stock solution (6 mM) was added to the wells, respectively. At the end of incubation (0 mM), 135 μL of ACN containing IS was added to all the wells. Then 15 μL of NADPH stock solution (6 mM) was added to the wells designated as Time 0. After quenching, the reaction mixtures were centrifuged at 3220 g for […]. Following centrifugation, 50 μL of the supernatant was transferred from each well into a 96-well sample plate containing 50 μL of ultra-pure water (Millipore) for LC/MS analysis. The peak area response (PARR) ratio to internal standard of the compounds at 5, 15, 30, and 45 minutes was compared to the PARR at time 0 to determine the percent of test compound remaining at each time point. Half-lives were calculated using Excel software, fitting to a single-phase exponential decay equation.

[2] = molecular target: T1, rat brain nicotinic receptor (α7 NAChR) (Rattus norvegicus (Rat), UniProt Q05941); assay type: binding; settings: Protocol No. 2; [3H] α-Bungarotoxin 0.4 nM, rat brain P2 membrane
[3] = Metabolic stability assay in human liver microsomes (HLM); assay type: in vitro ADME; settings: 1 μM
Procedure: as §1, §2, §3, §4, §5

Human plasma stability = assay type: in vitro ADME; settings: plasma
Procedure: Protocol 1: Studies were carried out in human plasma. All plasma was obtained from Bioreclamation and collected on sodium heparin. Plasma was adjusted to pH 7.4. A DMSO stock was first prepared for the test compound. An aliquot of the DMSO solution was dosed into 1 mL of plasma, which had been pre-warmed to 37° C., at a final test compound concentration of 1 μM. The vials were kept in a benchtop Thermomixer® for the duration of the experiment. Aliquots (100 μL) were taken at each time point (0, 15, 30, 60, and 120 minutes) and added to 96-well plates which had been pre-filled with 300 μL of acetonitrile. Samples were stored at 4° C. until the end of the experiment. After the final time point was sampled, the plate was mixed and then centrifuged at 3,000 rpm for 10 minutes. Aliquots of the supernatant were removed, diluted 1:1 into distilled water, and analyzed by LC-MS/MS. The peak area response ratio to internal standard (PARR) of the compound at 15, 30, 60 and 120 minutes was compared to the PARR at time 0 to determine the percent of test compound remaining at each time point. Half-lives were calculated using GraphPad software, fitting to a single-phase exponential decay equation.
Protocol 2: Studies were carried out in plasma. Plasma was prepared under approval of IRB and IACUC on sodium heparin. The pH of plasma was monitored and used within the range of pH 7.4 to pH 8.0. DMSO stocks were prepared for the test compounds. Aliquots of the DMSO solutions were diluted to 0.05 mM by 0.05 mM Sodium phosphate buffer with 0.5% BSA. Then 10 μL of 0.05 mM solutions were dosed into 90 μL of plasma in duplicates (n=2), which had been pre-warmed to 37° C., at a final test compound concentration of 5 μM. The plates were kept in a 37° C. water bath for the duration of the experiment. At each time point (0, 5, 15, 30, 45, 60, and 120 minutes), 400 μL of acetonitrile was added into corresponding wells. After the final time point was sampled, the plates were shaken at the vibrator (IKA, MTS 2/4) for 10 min (600 rpm/min) and then centrifuged at 5594 g for 15 min (Thermo Multifuge×3R). Aliquots of the supernatant were removed, diluted 1:1 into distilled water, and analyzed by LC-MS/MS. The peak area response ratio to internal standard (PARR) of the compounds at 5, 15, 30, 45, 60, and 120 minutes was compared to the PARR at time 0 to determine the percent of test compound remaining at each time point. Half-lives were calculated using Excel software, fitting to a single-phase exponential decay equation.

CYP2C19 = CYP2C19 (Homo sapiens (Human), UniProt P33261); assay: Cytochrome P450 inhibition in human liver microsomes, CYP2C19
CYP2C9 = CYP2C9 (Homo sapiens (Human), UniProt P11712); assay: Cytochrome P450 inhibition in human liver microsomes, CYP2C9
CYP3A4 = CYP3A4 (Homo sapiens (Human), UniProt P08684); assay: Cytochrome P450 inhibition in human liver microsomes, CYP3A4
CYP1A2 = CYP1A2 (Homo sapiens (Human), UniProt P05177); assay: Cytochrome P450 inhibition in human liver microsomes, CYP1A2
[4] = molecular target: T1, rat brain nicotinic receptor (α7 NAChR); assay type: binding
[5] = Protocol No. 1, rat liver microsomes
[6] = Protocol No. 1, human liver microsomes
[7] = read-out: 2C19 IC50, Protocol 1
[8] = read-out: 3A4 IC50 (Midazolam), substrate midazolam, Protocol 1
[9] = read-out: 3A4 IC50 (Testosterone), substrate testosterone, Protocol 1
[10] = read-out: 2C19 IC50, Protocol 2

T1 sequence (Q05941 23-502 limits assumed): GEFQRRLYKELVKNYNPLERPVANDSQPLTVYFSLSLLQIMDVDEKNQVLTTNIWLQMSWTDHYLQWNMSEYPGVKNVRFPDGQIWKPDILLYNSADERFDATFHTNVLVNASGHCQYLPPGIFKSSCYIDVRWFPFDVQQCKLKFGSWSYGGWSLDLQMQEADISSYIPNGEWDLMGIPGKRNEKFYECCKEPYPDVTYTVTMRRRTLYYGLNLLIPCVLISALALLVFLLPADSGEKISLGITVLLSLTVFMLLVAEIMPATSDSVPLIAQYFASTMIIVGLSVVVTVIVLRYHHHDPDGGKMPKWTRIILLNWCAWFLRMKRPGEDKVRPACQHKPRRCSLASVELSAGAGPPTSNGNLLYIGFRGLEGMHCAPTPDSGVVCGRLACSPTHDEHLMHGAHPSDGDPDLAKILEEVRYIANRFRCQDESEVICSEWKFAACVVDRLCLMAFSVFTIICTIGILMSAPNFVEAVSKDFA
Chain of CYP2C19 (P33261 whole entry): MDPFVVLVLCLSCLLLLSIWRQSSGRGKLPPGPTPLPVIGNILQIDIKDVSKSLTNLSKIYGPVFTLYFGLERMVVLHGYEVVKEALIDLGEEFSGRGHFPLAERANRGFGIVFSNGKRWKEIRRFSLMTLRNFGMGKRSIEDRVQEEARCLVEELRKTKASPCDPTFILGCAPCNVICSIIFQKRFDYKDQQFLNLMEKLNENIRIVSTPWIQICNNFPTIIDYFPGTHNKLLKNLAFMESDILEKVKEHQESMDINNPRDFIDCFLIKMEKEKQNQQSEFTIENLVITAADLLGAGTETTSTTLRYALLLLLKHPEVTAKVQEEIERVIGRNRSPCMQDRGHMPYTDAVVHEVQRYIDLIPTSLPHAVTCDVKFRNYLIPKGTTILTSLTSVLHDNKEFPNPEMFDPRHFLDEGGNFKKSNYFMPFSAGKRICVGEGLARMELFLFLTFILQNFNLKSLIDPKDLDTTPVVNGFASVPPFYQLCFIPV
Chain of CYP2C9 (P11712 whole entry): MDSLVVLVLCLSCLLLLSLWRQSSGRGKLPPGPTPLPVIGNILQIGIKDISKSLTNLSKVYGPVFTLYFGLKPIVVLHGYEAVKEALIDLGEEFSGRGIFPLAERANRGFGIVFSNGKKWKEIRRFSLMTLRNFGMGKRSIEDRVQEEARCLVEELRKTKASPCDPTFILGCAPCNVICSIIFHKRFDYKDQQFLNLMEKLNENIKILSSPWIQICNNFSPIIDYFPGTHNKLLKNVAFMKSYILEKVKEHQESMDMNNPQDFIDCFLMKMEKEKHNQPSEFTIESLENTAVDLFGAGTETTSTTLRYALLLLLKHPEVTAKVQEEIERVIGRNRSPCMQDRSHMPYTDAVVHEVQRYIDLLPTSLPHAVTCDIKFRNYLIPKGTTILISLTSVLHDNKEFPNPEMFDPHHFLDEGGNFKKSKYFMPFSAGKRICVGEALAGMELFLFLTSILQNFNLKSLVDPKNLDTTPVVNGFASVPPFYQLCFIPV
Chain of CYP3A4 (P08684 whole entry): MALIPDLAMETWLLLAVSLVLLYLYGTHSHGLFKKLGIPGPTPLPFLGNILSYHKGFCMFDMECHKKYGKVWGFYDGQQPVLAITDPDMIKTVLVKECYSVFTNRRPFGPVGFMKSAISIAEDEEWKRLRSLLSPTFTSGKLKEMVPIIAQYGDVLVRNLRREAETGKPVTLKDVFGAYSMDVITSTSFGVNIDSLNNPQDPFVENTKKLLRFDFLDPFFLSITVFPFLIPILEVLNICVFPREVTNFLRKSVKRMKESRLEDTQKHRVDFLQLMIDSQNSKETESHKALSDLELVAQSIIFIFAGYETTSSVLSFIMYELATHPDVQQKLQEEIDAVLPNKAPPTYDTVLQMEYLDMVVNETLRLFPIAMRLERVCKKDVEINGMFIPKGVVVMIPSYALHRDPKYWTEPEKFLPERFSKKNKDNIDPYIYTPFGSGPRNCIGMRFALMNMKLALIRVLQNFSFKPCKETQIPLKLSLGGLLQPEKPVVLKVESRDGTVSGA
Chain of CYP1A2 (P05177 whole entry): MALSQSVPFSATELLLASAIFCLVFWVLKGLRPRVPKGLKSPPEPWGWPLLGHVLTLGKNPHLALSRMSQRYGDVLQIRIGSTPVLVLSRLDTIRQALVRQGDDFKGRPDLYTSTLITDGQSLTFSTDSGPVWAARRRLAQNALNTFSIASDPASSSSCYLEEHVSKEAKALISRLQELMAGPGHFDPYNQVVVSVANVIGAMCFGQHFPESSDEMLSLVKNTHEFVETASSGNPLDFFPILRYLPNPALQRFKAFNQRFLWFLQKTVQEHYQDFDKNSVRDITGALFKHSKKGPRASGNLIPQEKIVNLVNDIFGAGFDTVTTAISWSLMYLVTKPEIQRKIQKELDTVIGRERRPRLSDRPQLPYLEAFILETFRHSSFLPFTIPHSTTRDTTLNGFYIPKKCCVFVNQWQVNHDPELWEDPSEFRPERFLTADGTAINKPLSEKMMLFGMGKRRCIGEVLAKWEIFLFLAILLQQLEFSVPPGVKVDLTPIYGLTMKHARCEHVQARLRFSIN

| Compound | RLM [1, 5] | IC50 [2] | Ki [2] | HLM [3, 6] | % Remaining @ 2 h (Human plasma stability; Protocol No. 2, 5 μM, 37° C.) | IC50 (CYP2C19; [7]) | IC50 (CYP2C9; read-out: 2C9 IC50, Protocol 1) | IC50 (CYP3A4; [8]) | IC50 (CYP3A4; [9]) | IC50 (CYP1A2; read-out: 1A2 IC50, Protocol 1) | RLM ([1]; rat, microsomes, pH 7.4) | IC50 (CYP2C19; [10]) | IC50 (CYP2C9; read-out: 2C9 IC50, Protocol 2) | HLM ([3]; human, microsomes, pH 7.4) | IC50 [4] | Ki [4] | % Remaining @ 2 h (Human plasma stability; human, 2 h, 1 μM, pH 7.4) | half-life at 1 μM (Human plasma stability; human, pH 7.4) | IC50 (CYP1A2; read-out: 1A2 IC50, Protocol 2) | RLM ([1]; rat, microsomes) | further results |
| --- | --- | --- | --- | --- | --- | --- | --- | --- | --- | --- | --- | --- | --- | --- | --- | --- | --- | --- | --- | --- | --- |
| COc1cc2[nH]cc(C(=O)OCC34CCN(CC3)CC4)c2cc1OC [Compound 87, quinuclidin-4-ylmethyl 5,6-dimethoxy-1H-indole-3-carboxylate] | 257.71 mL/min/kg | 1.56 µM | 2.71 µM | 0.5 mL/min/kg | 55.42% | – | – | – | – | – | – | – | – | – | – | – | – | – | – | – | – |
| Cc1cc2c(C(=O)OCC34CCN(CC3)CC4)c[nH]c2cc1C#N [Compound 84, quinuclidin-4-ylmethyl 6-cyano-5-methyl-1H-indole-3-carboxylate] | 116.21 mL/min/kg | 3.34 µM | 7.18 µM | 10.24 mL/min/kg | 59.79% | – | – | – | – | – | – | – | – | – | – | – | – | – | – | – | – |
| Cl.O=C(OCC12CCN(CC1)CC2)c1c[nH]c2cc(Cl)c(F)cc12 [Compound 52, Quinuclidin-4-ylmethyl 6-chloro-5-fluoro-1H-indole-3-carboxylate hydrochloride] | 345.506 mL/min/kg | – | – | 4.003 mL/min/kg | 85.8425% | > 10 µM | > 10 µM | > 10 µM | > 10 µM | > 10 µM | – | – | – | – | – | – | – | – | – | – | – |
| O=C(OCC12CCN(CC1)CC2)c1c[nH]c2ccc(F)cc12 [Compound 12, quinuclidin-4-ylmethyl 5-fluoro-1H-indole-3-carboxylate] | – | – | – | – | – | – | – | – | – | – | 208.73 mL/min/kg | > 10 µM | > 10 µM | <13.608 mL/min/kg | 0.0866 µM | 0.0751 µM | 31% | 1.23 h | > 10 µM | – | – |
| Cc1cc(F)cc2[nH]cc(C(=O)OCC34CCN(CC3)CC4)c12 [Compound 44, quinuclidin-4-ylmethyl 6-fluoro-4-methyl-1H-indole-3-carboxylate] | – | – | – | – | – | > 10 µM | > 10 µM | > 10 µM | > 10 µM | > 10 µM | – | – | – | – | 0.48 µM | 0.412 µM | – | – | – | 531.35 mL/min/kg | HLM ([3]; human, microsomes): 3.5 mL/min/kg; T1/2 (Human plasma stability; human): ∞; % Remaining @ 2 h (Human plasma stability; human, 2 h, 5 μM): 95.72% |
| Cc1c(F)ccc2[nH]cc(C(=O)OCC34CCN(CC3)CC4)c12 [Compound 43, quinuclidin-4-ylmethyl 5-fluoro-4-methyl-1H-indole-3-carboxylate] | – | – | – | – | – | > 10 µM | > 10 µM | > 10 µM | > 10 µM | > 10 µM | – | – | – | – | 0.207 µM | 0.177 µM | – | – | – | 469.04 mL/min/kg | HLM ([3]; human, microsomes): 5.57 mL/min/kg; T1/2 (Human plasma stability; human): ∞; % Remaining @ 2 h (Human plasma stability; human, 2 h, 5 μM): 112.99% |
| COc1ccc2[nH]cc(C(=O)OCC34CCN(CC3)CC4)c2c1C [Compound 34, quinuclidin-4-ylmethyl 5-methoxy-4-methyl-1H-indole-3-carboxylate] | – | – | – | – | – | – | – | – | – | – | 125.64 mL/min/kg | > 10 µM | > 10 µM | <13.608 mL/min/kg | 0.0236 µM | 0.0204 µM | 55% | > 2 h | > 10 µM | – | – |
| Cc1c(OCC(F)(F)F)ccc2[nH]cc(C(=O)OCC34CCN(CC3)CC4)c12 [Compound 94, quinuclidin-4-ylmethyl 4-methyl-5-(2,2,2-trifluoroethoxy)-1H-indole-3-carboxylate] | – | 0.162 µM | 0.23 µM | – | – | – | – | – | – | – | – | – | – | – | – | – | – | – | – | 26.52 mL/min/kg | HLM ([3]; human, microsomes): 2.62 mL/min/kg; % Remaining @ 2 h (Human plasma stability; human, 2 h, 5 μM): 76.38% |
| COc1ccc2[nH]cc(C(=O)OCC34CCN(CC3)CC4)c2c1 [Compound 18, quinuclidin-4-ylmethyl 5-methoxy-1H-indole-3-carboxylate] | – | – | – | – | – | – | – | – | – | – | 47.8757 mL/min/kg | > 10 µM | > 10 µM | <13.608 mL/min/kg | 0.0326 µM | 0.0283 µM | 5.8% | 0.487 h | > 10 µM | – | – |
